Several values for one entry are separate records, joined by “and”; a condition that tells them apart may be missing. Identical values can stand only once. Like-named read-outs stand apart in the source and are kept apart here.
Legend:
[1] = test system: [NiFe]-hydrogenase (Hyd-3); assay: Whole-cell [NiFe] hydrogenase assay (benzyl viologen reduction); type: cell-based, Klebsiella pneumoniae
Description: We reasoned that disruption of Ni^2+ uptake and homeostasis should also perturb the activity of other Ni-dependent enzymes. To examine this possibility, we tested the effects of free AMA and Zn-AMA on Ni-dependent hydrogen metabolism in bacteria. […] K. pneumoniae produces a single [NiFe]-hydrogenase (Hyd-3) as part of the H2-evolving formate hydrogenlyase (FHL) complex and is encoded by the hyc operon (Fig S8)[21]. […] To measure [NiFe]-hydrogenase-catalyzed H2 […], benzyl viologen was used as an artificial electron acceptor, as previously described. Although Hyd-3 is involved in the evolution of H2, previous work in E. coli has shown that it is responsible for 90% of the hydrogen-dependent benzyl viologen reduction in crude extracts and whole-cell assays[41]–[44].
The whole-cell hydrogenase activity in K. pneumoniae was based on a modified method described by Lacasse et al.[41] […] The cell suspension was diluted 1/100 in LB supplemented with 0.8% glucose, 10 mM MgCl2, and 10 mM potassium phosphate, pH 7.2. […] Following an 18-hour incubation, whole-cell [NiFe] hydrogenase activity was monitored by adding benzyl viologen (1 mg/mL) to each well, followed by continuous monitoring of the change in absorbance at 630 nm using a BioTek Synergy H1 microplate reader in an anaerobic glove box.

[2] = test system: K. pneumoniae urease activity (whole cell); assay: microbe, parasite or virus in culture; type: cell-based, Klebsiella pneumoniae ATCC 33495; settings: artificial urine; for K. pneumoniae urease-dependent pH change (pH): 37 °C
[3] = test system: S. aureus; type: cell-based, Staphylococcus aureus; settings: 200 μM, 24 h
[4] = test system: HEK293 cells; assay: HEK293 cytotoxicity assay (Cell Titer Glo 2.0)
[5] = test system: K. pneumoniae; type: cell-based, Klebsiella pneumoniae; settings: 200 μM, 24 h exposure
[6] = test system: K. pneumoniae; type: cell-based, Klebsiella pneumoniae
[7] = test system: S. aureus urease activity (whole cell); type: cell-based, Staphylococcus aureus; settings: artificial urine, 24 h; for Staphylococcus aureus urease-dependent pH change (pH): 37 °C
[8] = test system: cellular Ni and Zn content of K. pneumoniae; assay: Cellular metal analysis by ICP-MS (60Ni, 66Zn); type: cell-based, Klebsiella pneumoniae
Method: The cellular Zn^2+ and Ni^2+ content of K. pneumoniae was carried out according to the method described by Maunders et al.[66] with some modifications. An overnight culture of K. pneumoniae was diluted 1/200 in LB medium (5 mL) and was either untreated or treated with 0.2 mM AMA or Zn-AMA. The cells were grown for 16 h at 37 °C, harvested by centrifugation, and washed twice with PBS containing 5 mM EDTA and twice with ultra-pure water. The cell pellet was subsequently digested in 0.25 mL 65% HNO3 at 80 °C for 30 minutes in borosilicate glass tubes using a water bath. The samples were diluted to 2% HNO3 and filtered through a 0.45 μm syringe filter. ^60Ni and ^66Zn were quantified using a Thermo iCAP Q ICP-MS.

[9] = target: T1, urease (Klebsiella pneumoniae subsp. pneumoniae, UniProt A6TE40+A6TE41+A6TE42); assay: Urease activity in cell-free extracts (NH3 release, indophenol-hypochlorite); type: biochemical
T1 construct: endogenous in cells; host or cells: Klebsiella pneumoniae (ATCC 33495), sonicated and cleared lysate
T1 sequence (A6TE41 whole entry): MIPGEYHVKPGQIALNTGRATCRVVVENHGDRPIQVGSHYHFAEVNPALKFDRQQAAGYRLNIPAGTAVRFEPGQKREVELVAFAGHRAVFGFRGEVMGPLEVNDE
T1 sequence (A6TE40 whole entry): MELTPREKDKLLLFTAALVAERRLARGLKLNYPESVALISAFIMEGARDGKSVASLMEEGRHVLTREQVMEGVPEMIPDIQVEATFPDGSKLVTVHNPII
T1 sequence (A6TE42 whole entry): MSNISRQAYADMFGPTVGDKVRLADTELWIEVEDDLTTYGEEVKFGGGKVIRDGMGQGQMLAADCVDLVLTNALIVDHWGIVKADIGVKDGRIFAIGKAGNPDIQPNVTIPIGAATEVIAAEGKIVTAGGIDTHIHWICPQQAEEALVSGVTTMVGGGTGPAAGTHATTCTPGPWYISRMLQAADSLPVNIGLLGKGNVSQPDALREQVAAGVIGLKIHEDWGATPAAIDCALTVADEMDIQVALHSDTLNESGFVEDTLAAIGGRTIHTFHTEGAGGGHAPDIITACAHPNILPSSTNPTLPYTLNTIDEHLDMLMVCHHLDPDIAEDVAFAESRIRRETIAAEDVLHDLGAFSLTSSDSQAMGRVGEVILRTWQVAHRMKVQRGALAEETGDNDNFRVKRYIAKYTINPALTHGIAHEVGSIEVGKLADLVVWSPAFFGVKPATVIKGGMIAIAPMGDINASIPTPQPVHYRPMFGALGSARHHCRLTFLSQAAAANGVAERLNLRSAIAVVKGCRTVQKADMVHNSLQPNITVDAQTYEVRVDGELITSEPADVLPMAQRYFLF
Method: The cells were subsequently lysed by sonication, and cell debris was removed with centrifugation (20,000 × g, 10 min). […] Liberated NH3 was quantified using the indophenol-hypocholorite reaction as previously described. The total amount of protein was quantified by Bradford assay using bovine serum albumin as standard. Each assay was performed in duplicate wells.
FIG S7 Evaluation of Zn-AMA as a direct inhibitor of urease. A) Checkerboard analysis of Zn-AMA and AHA on urease activity of K. […]
Dose- […]
response curves of fluorofamide, Zn-AMA, and AMA inhibiting the urease-catalyzed release of NH3 quantified with indophenol hypochlorite. The rates of NH3 production were measured over 20 min and were normalized to total protein concentration. Experiments were performed in duplicate. Individual replicates are shown as colored circles.

[10] = K. pneumoniae treated with 200 μM

## N[C@@H](CN[C@@H](CN[C@@H](CC(=O)O)C(=O)O)C(=O)O)C(=O)O.[Zn+2] [Zn-AMA]
[1]; 1.5625 μM
  Benzyl viologen hydrogenase assay (activity): 9.43 and 9.72
[1]; 3.125 μM
  Benzyl viologen hydrogenase assay (activity): 9.23 and 9.47
[1]; 6.25 μM
  Benzyl viologen hydrogenase assay (activity): 8.98 and 9.82
[1]; 12.5 μM
  Benzyl viologen hydrogenase assay (activity): 9.03 and 8.64
[1]; 25 μM
  Benzyl viologen hydrogenase assay (activity): 7.51 and 6.87
[1]; 50 μM
  Benzyl viologen hydrogenase assay (activity): 5.01 and 4.71
[1]; 100 μM
  Benzyl viologen hydrogenase assay (activity): 2.11
[1]; 200 μM
  Benzyl viologen hydrogenase assay (activity): 0.69 and 0.39
[1]; read-out: EC50, Hyd-3 [NiFe]-hydrogenase inhibition, LB-glucose, anaerobic, whole cell, benzyl viologen
  EC50: 50.8 ± 4.4 µM
[2]; 0.19 μM, 24 h
  K. pneumoniae urease-dependent pH change (pH): 8.14 and 8.10
[2]; 0.39 μM, 24 h
  K. pneumoniae urease-dependent pH change (pH): 8.08 and 8.00
[2]; 0.78 μM, 24 h
  K. pneumoniae urease-dependent pH change (pH): 7.84 and 7.81
[2]; 1.56 μM, 24 h
  K. pneumoniae urease-dependent pH change (pH): 7.60 and 7.55
[2]; 3.12 μM, 24 h
  K. pneumoniae urease-dependent pH change (pH): 7.41 and 7.27
[2]; 6.25 μM, 24 h
  K. pneumoniae urease-dependent pH change (pH): 7.11
[2]; 12.5 μM, 24 h
  K. pneumoniae urease-dependent pH change (pH): 6.87 and 6.85
[2]; 25 μM, 24 h
  K. pneumoniae urease-dependent pH change (pH): 6.76 and 6.71
[2]; 50 μM, 24 h
  K. pneumoniae urease-dependent pH change (pH): 6.66 and 6.60
[2]; 100 μM, 24 h
  K. pneumoniae urease-dependent pH change (pH): 6.65 and 6.54
[2]; 200 μM, 24 h
  K. pneumoniae urease-dependent pH change (pH): 6.80 and 6.56
[2]; K. pneumoniae, 24 h
  concentration that significantly suppressed urease activity: 50 µM
[2]; Klebsiella pneumoniae, K. pneumoniae, read-out: EC50, half-maximal effective concentration required to suppress urease-dependent pH change
  EC50: 2.5 ± 0.4 µM
[3]
  bacterial viability (spot dilutions): not lethal to bacteria
[4]; 48 h, up to 512 μg/mL (~1.4 mM)
  cytotoxicity toward HEK293: no significant cytotoxicity
[4]; Homo sapiens, HEK293, 48 h, read-out: IC50 (HEK293 viability)
  IC50: > 512 µg/mL
[4]; Zn-AMA 0.5 μg/mL
  HEK 293T cytotoxicity assay raw signal: 787289 and 688554 and 688484
[4]; Zn-AMA 1 μg/mL
  HEK 293T cytotoxicity assay raw signal: 778862 and 676746 and 680280
[4]; Zn-AMA 2 μg/mL
  HEK 293T cytotoxicity assay raw signal: 730695 and 661495 and 777158
[4]; Zn-AMA 4 μg/mL
  HEK 293T cytotoxicity assay raw signal: 783723 and 676080 and 794996
[4]; Zn-AMA 8 μg/mL
  HEK 293T cytotoxicity assay raw signal: 742661 and 700936 and 674120
[4]; Zn-AMA 16 μg/mL
  HEK 293T cytotoxicity assay raw signal: 815769 and 690170 and 672316
[4]; Zn-AMA 32 μg/mL
  HEK 293T cytotoxicity assay raw signal: 682089 and 773769 and 699603
[4]; Zn-AMA 64 μg/mL
  HEK 293T cytotoxicity assay raw signal: 773018 and 718789 and 808685
[4]; Zn-AMA 128 μg/mL
  HEK 293T cytotoxicity assay raw signal: 636555 and 716494 and 658016
[4]; Zn-AMA 256 μg/mL
  HEK 293T cytotoxicity assay raw signal: 744022 and 626132 and 622056
[4]; Zn-AMA 512 μg/mL
  HEK 293T cytotoxicity assay raw signal: 618617 and 604431 and 563165
[5]
  bacterial viability (spot dilutions): do not affect bacterial viability
[6]
  Growth curve (culture density): 0.101 and 0.102 and 0.103 and 0.104 and 0.105 and 0.107 and 0.106 and 0.108
[6]; 15.15 h, 50 μM
  Growth curve (culture density): 0.107 and 0.104
[6]; 16.15 h, 50 μM
  Growth curve (culture density): 0.107 and 0.103
[6]; 17.15 h, 50 μM
  Growth curve (culture density): 0.107 and 0.102
[6]; Chelex-treated nitrogen-limited medium
  growth with urea as sole nitrogen source: did not
[6]; medium supplemented with 0.25 μM NiCl
  growth with urea as sole nitrogen source: inhibited the growth of K. pneumoniae
[7]; 0.19 μM
  Staphylococcus aureus urease-dependent pH change (pH): 7.24 and 7.25
[7]; 0.39 μM
  Staphylococcus aureus urease-dependent pH change (pH): 7.28 and 7.12
[7]; 0.78 μM
  Staphylococcus aureus urease-dependent pH change (pH): 6.95 and 7.00
[7]; 1.56 μM
  Staphylococcus aureus urease-dependent pH change (pH): 6.76 and 6.81
[7]; 3.12 μM
  Staphylococcus aureus urease-dependent pH change (pH): 6.56 and 6.59
[7]; 6.25 μM
  Staphylococcus aureus urease-dependent pH change (pH): 6.45 and 6.49
[7]; 12.5 μM
  Staphylococcus aureus urease-dependent pH change (pH): 6.41 and 6.45
[7]; 25 μM
  Staphylococcus aureus urease-dependent pH change (pH): 6.38 and 6.40
[7]; 50 μM
  Staphylococcus aureus urease-dependent pH change (pH): 6.39 and 6.40
[7]; 100 μM
  Staphylococcus aureus urease-dependent pH change (pH): 6.37 and 6.40
[7]; 200 μM
  Staphylococcus aureus urease-dependent pH change (pH): 6.41 and 6.39
[7]; S. aureus
  effect on urease activity: inhibited urease activity similarly
[8]; 200 μM, ICP-MS
  effect on intracellular Ni^2+ levels: reduced intracellular Ni^2+ levels
  effect on intracellular Zn^2+ levels: without affecting Zn^2+ levels
[8]; [10]
  ICP-MS cellular Ni: 2.15 µM and 2.37 µM
  ICP-MS cellular Zn: 0.81 µM and 0.97 µM
[9]; Zn-AMA 0.007813 mM
  Specific activity (cell-free indophenol urease assay): 45.30 nmol/min/mg and 43.25 nmol/min/mg
[9]; Zn-AMA 0.015625 mM
  Specific activity (cell-free indophenol urease assay): 43.59 nmol/min/mg and 42.05 nmol/min/mg
[9]; Zn-AMA 0.03125 mM
  Specific activity (cell-free indophenol urease assay): 42.91 nmol/min/mg and 40.51 nmol/min/mg
[9]; Zn-AMA 0.0625 mM
  Specific activity (cell-free indophenol urease assay): 42.56 nmol/min/mg and 39.66 nmol/min/mg
[9]; Zn-AMA 0.125 mM
  Specific activity (cell-free indophenol urease assay): 42.39 nmol/min/mg and 39.32 nmol/min/mg
[9]; Zn-AMA 0.25 mM
  Specific activity (cell-free indophenol urease assay): 39.32 nmol/min/mg and 37.78 nmol/min/mg
[9]; Zn-AMA 0.5 mM
  Specific activity (cell-free indophenol urease assay): 36.07 nmol/min/mg and 34.19 nmol/min/mg
[9]; Zn-AMA 1 mM
  Specific activity (cell-free indophenol urease assay): 31.28 nmol/min/mg and 28.03 nmol/min/mg
[9]; cell-free extract
  direct inhibition of urease: excluded the direct inhibition of urease
